Source: patent EP4741383A1, “COMPOUND AND USE THEREOF AS ANTI-CANCER DRUG” (Tyligand Bioscience (Shanghai) Limited, priority 2023, dated 2025)

System: KYSE520
Test: CellTiter-Glo cell proliferation inhibition, KYSE520
Format: cell-based, human
Details: Homo sapiens, KYSE-520; KYSE520 cells, 120 hours, CellTiter-Glo

SMILES | IC50 [µM]
O=C(Nc1ccc(-c2cc3cc(F)c(-c4nnn[nH]4)cc3n2C2CCC2)cc1)C(=O)Nc1ccc(N2CCC(C3COC3)CC2)cc1 [Example 20] | 0.036
CC1(n2c(-c3ccc(NC(=O)C(=O)Nc4ccc(N5CCC6(CCOC6)CC5)cc4)cc3)cc3cc(F)c(-c4nnn[nH]4)cc32)CCC1 [Example 68] | 0.057
O=C(Nc1ccc(-c2oc3cc(F)c(-c4nnn[nH]4)cc3c2C2CCC2)cc1)C(=O)Nc1ccc(N2CCC3(CCOC3)CC2)cc1 [Example 125] | 0.68
CC1(CO)CCN(c2ccc(NC(=O)C(=O)Nc3ccc(-c4cc5cc(F)c(-c6nnn[nH]6)cc5n4C4CCC4)cc3)cc2)CC1 [Example 40] | 0.168
O=C(Nc1ccc(-c2cc3cc(F)c(-c4nnn[nH]4)cc3n2C2CCC2)cc1)C(=O)Nc1ccc(N2CCC3(COC3)C2)cc1 [Example 59] | 0.119
O=C(Nc1ccc(-c2cc3cc(F)c(-c4nnn[nH]4)cc3n2C2CCC2)cc1)C(=O)Nc1ccc(N2CCC3(CCCOC3)CC2)cc1 [Example 74] | 0.116
CC1(n2c(-c3ccc(NC(=O)C(=O)Nc4ccc(-c5cnn(C6COC6)c5)cc4)cc3)cc3cc(F)c(-c4nnn[nH]4)cc32)CC1 [Example 6] | 0.065
O=C(Nc1ccc(-c2cc3cc(F)c(-c4nnn[nH]4)cc3n2C2CCC2)cc1)C(=O)Nc1ccc(N2CCC3(CC(O)C3)C2)cc1 (stereo not drawn) [Example 89] | 0.062
N#CCc1cc(-c2ccc(NC(=O)C(=O)Nc3ccc(-c4cc5cc(F)c(-c6nnn[nH]6)cc5n4C4CCC4)cc3)cc2)cs1 [Example 2] | 0.141
O=C(Nc1ccc(-c2cc3cc(F)c(-c4nnn[nH]4)cc3n2C2CC2)cc1)C(=O)Nc1ccc(N2CCC3(CCOC3)CC2)cc1 [Example 69] | 0.189
Cn1cc(-c2ccc(NC(=O)C(=O)Nc3ccc(-c4cc5cc(F)c(-c6noc(=O)[nH]6)cc5n4C4CCC4)cc3)cc2)cn1 [Example 123] | 0.243
O=C(Nc1ccc(-c2cc3cc(F)c(-c4nnn[nH]4)cc3n2C2CCC2)cc1)C(=O)Nc1ccc(N2CCC3(CCC(O)CC3)CC2)cc1 [Example 108] | 0.167
O=C(Nc1ccc(-c2cc3cc(F)c(-c4nnn[nH]4)cc3n2C2CCC2)cc1)C(=O)Nc1ccc(N2CCC(CCO)C2)cc1 (stereo not drawn) [Example 14] | 0.113
O=C(Nc1ccc(-c2cc3cc(F)c(-c4nnn[nH]4)cc3n2C2CCC2)cc1)C(=O)Nc1ccc(N2CCC3(CCCOC3)C2)cc1 (stereo not drawn) [Example 62] | 0.193
COC1CC(n2c(-c3ccc(NC(=O)C(=O)Nc4ccc(N5CCC6(CCC(O)C6)CC5)cc4)cc3)cc3cc(F)c(-c4nnn[nH]4)cc32)C1 (stereo not drawn) [Example 103] | 0.042
CC1(n2c(-c3ccc(NC(=O)C(=O)Nc4ccc(N5CCC(CCO)CC5)cc4)cc3)cc3cc(F)c(-c4nnn[nH]4)cc32)CCC1 [Example 26] | 0.126
O=C(Nc1ccc(-c2cc3cc(F)c(-c4nnn[nH]4)cc3n2C2CCC2)cc1)C(=O)Nc1ccc(N2CCC3(CCOCC3)CC2)cc1 [Example 76] | 0.096
CC1(CO)CCN(c2ccc(NC(=O)C(=O)Nc3ccc(-c4cc5cc(F)c(-c6nnn[nH]6)cc5n4C4CCC4)cc3)cc2)C1 (stereo not drawn) [Example 16] | 0.151
O=C(Nc1ccc(-c2cc3cc(F)c(-c4nnn[nH]4)cc3n2C2CCC2)cc1)C(=O)Nc1ccc(N2CCC3(CCOC3)CC2)cc1 [Example 67] | 0.086
O=C(Nc1ccc(-c2cc3cc(F)c(-c4nnn[nH]4)cc3n2C2CCC2)cc1)C(=O)Nc1ccc(N2CCC3(CCC(O)C3)CC2)cc1 (stereo not drawn) [Example 100] | 0.057
CC(C)(O)C1CCN(c2ccc(NC(=O)C(=O)Nc3ccc(-c4cc5cc(F)c(-c6nnn[nH]6)cc5n4C4CCC4)cc3)cc2)CC1 [Example 33] | 0.042
O=C(Nc1ccc(-c2cc3cc(F)c(-c4nnn[nH]4)cc3n2C2CCC2)cc1)C(=O)Nc1ccc(N2CCC3(CCOC3)C2)cc1 (stereo not drawn) [Example 61] | 0.126
CC1(O)CC2(CCN(c3ccc(NC(=O)C(=O)Nc4ccc(-c5cc6cc(F)c(-c7nnn[nH]7)cc6n5C5CCC5)cc4)cc3)CC2)C1 [Example 94] | 0.115
CC1(O)CCC2(CC1)CN(c1ccc(NC(=O)C(=O)Nc3ccc(-c4cc5cc(F)c(-c6nnn[nH]6)cc5n4C4CCC4)cc3)cc1)C2 [Example 83] | 0.163
CC(O)C1CCN(c2ccc(NC(=O)C(=O)Nc3ccc(-c4cc5cc(F)c(-c6nnn[nH]6)cc5n4C4CCC4)cc3)cc2)CC1 (stereo not drawn) [Example 29] | 0.076
CC1(n2c(-c3ccc(NC(=O)C(=O)Nc4ccc(N5CCC6(CCC(O)CC6)CC5)cc4)cc3)cc3cc(F)c(-c4nnn[nH]4)cc32)CCC1 [Example 109] | 0.107

Same assay, conditions: relative to 11a-1 (1.23 µM)

SMILES | IC50 against KYSE-520 cells, fold lower than 11a-1 [fold]
O=C(Nc1ccc(-c2cc3cc(F)c(-c4nnn[nH]4)cc3n2C2CCC2)cc1)C(=O)Nc1ccc(N2CCC(C3COC3)CC2)cc1 [Example 20] | 34

Target: T1, SHP2 enzyme (catalytic domain, amino acid sequence 224-528) (Homo sapiens, UniProt Q06124)
T1 construct: purchased GenScript
T1 sequence (Q06124 224-528): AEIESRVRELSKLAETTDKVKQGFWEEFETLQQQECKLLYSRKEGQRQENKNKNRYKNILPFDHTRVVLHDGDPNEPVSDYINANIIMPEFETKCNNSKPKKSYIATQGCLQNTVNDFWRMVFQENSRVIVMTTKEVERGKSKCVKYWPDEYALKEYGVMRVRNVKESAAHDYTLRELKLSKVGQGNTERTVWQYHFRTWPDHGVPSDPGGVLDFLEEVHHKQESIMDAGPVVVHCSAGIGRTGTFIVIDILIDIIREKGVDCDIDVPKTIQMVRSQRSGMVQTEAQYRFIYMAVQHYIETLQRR
Test: SHP2 enzyme inhibition assay (DiFMUP substrate, fluorescence)
Format: biochemical
Details: SHP2 catalytic domain, DiFMUP substrate, 30 min pre-incubation; read-out: S HP2 I C50
Method in brief: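 SHP2 catalytic domain (aa 224-528) preincubated 30 min at room temperature with compounds (10-point 3-fold series) in HEPES pH 7.2 buffer with NaCl, EDTA, DTT, BSA, Brij35. DiFMUP from 50 µM working solution added, 5 min reaction; fluorescence 340/450 nm; IC50 from nonlinear dose-response fit.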

SMILES | IC50 [µM]
O=C(Nc1ccc(-c2cc3cc(F)c(-c4nnn[nH]4)cc3n2C2CCC2)cc1)C(=O)Nc1ccc(N2CCC(C3COC3)CC2)cc1 [Example 20] | 0.027
CC1(n2c(-c3ccc(NC(=O)C(=O)Nc4ccc(N5CCC6(CCOC6)CC5)cc4)cc3)cc3cc(F)c(-c4nnn[nH]4)cc32)CCC1 [Example 68] | 0.048
O=C(Nc1ccc(-c2oc3cc(F)c(-c4nnn[nH]4)cc3c2C2CCC2)cc1)C(=O)Nc1ccc(N2CCC3(CCOC3)CC2)cc1 [Example 125] | 0.051
CC1(CO)CCN(c2ccc(NC(=O)C(=O)Nc3ccc(-c4cc5cc(F)c(-c6nnn[nH]6)cc5n4C4CCC4)cc3)cc2)CC1 [Example 40] | 0.06
O=C(Nc1ccc(-c2cc3cc(F)c(-c4nnn[nH]4)cc3n2C2CCC2)cc1)C(=O)Nc1ccc(N2CCC3(COC3)C2)cc1 [Example 59] | 0.062
O=C(Nc1ccc(-c2cc3cc(F)c(-c4nnn[nH]4)cc3n2C2CCC2)cc1)C(=O)Nc1ccc(N2CCC3(CCCOC3)CC2)cc1 [Example 74] | 0.065
CC1(n2c(-c3ccc(NC(=O)C(=O)Nc4ccc(-c5cnn(C6COC6)c5)cc4)cc3)cc3cc(F)c(-c4nnn[nH]4)cc32)CC1 [Example 6] | 0.073
O=C(Nc1ccc(-c2cc3cc(F)c(-c4nnn[nH]4)cc3n2C2CCC2)cc1)C(=O)Nc1ccc(N2CCC3(CC(O)C3)C2)cc1 (stereo not drawn) [Example 89] | 0.157
N#CCc1cc(-c2ccc(NC(=O)C(=O)Nc3ccc(-c4cc5cc(F)c(-c6nnn[nH]6)cc5n4C4CCC4)cc3)cc2)cs1 [Example 2] | 0.064
O=C(Nc1ccc(-c2cc3cc(F)c(-c4nnn[nH]4)cc3n2C2CC2)cc1)C(=O)Nc1ccc(N2CCC3(CCOC3)CC2)cc1 [Example 69] | 0.046
Cn1cc(-c2ccc(NC(=O)C(=O)Nc3ccc(-c4cc5cc(F)c(-c6noc(=O)[nH]6)cc5n4C4CCC4)cc3)cc2)cn1 [Example 123] | 0.141
O=C(Nc1ccc(-c2cc3cc(F)c(-c4nnn[nH]4)cc3n2C2CCC2)cc1)C(=O)Nc1ccc(N2CCC3(CCC(O)CC3)CC2)cc1 [Example 108] | 0.03
O=C(Nc1ccc(-c2cc3cc(F)c(-c4nnn[nH]4)cc3n2C2CCC2)cc1)C(=O)Nc1ccc(N2CCC(CCO)C2)cc1 (stereo not drawn) [Example 14] | 0.045
O=C(Nc1ccc(-c2cc3cc(F)c(-c4nnn[nH]4)cc3n2C2CCC2)cc1)C(=O)Nc1ccc(N2CCC3(CCCOC3)C2)cc1 (stereo not drawn) [Example 62] | 0.065
COC1CC(n2c(-c3ccc(NC(=O)C(=O)Nc4ccc(N5CCC6(CCC(O)C6)CC5)cc4)cc3)cc3cc(F)c(-c4nnn[nH]4)cc32)C1 (stereo not drawn) [Example 103] | 0.141
CC1(n2c(-c3ccc(NC(=O)C(=O)Nc4ccc(N5CCC(CCO)CC5)cc4)cc3)cc3cc(F)c(-c4nnn[nH]4)cc32)CCC1 [Example 26] | 0.061
O=C(Nc1ccc(-c2cc3cc(F)c(-c4nnn[nH]4)cc3n2C2CCC2)cc1)C(=O)Nc1ccc(N2CCC3(CCOCC3)CC2)cc1 [Example 76] | 0.04
CC1(CO)CCN(c2ccc(NC(=O)C(=O)Nc3ccc(-c4cc5cc(F)c(-c6nnn[nH]6)cc5n4C4CCC4)cc3)cc2)C1 (stereo not drawn) [Example 16] | 0.048
O=C(Nc1ccc(-c2cc3cc(F)c(-c4nnn[nH]4)cc3n2C2CCC2)cc1)C(=O)Nc1ccc(N2CCC3(CCOC3)CC2)cc1 [Example 67] | 0.034
O=C(Nc1ccc(-c2cc3cc(F)c(-c4nnn[nH]4)cc3n2C2CCC2)cc1)C(=O)Nc1ccc(N2CCC3(CCC(O)C3)CC2)cc1 (stereo not drawn) [Example 100] | 0.048
CC(C)(O)C1CCN(c2ccc(NC(=O)C(=O)Nc3ccc(-c4cc5cc(F)c(-c6nnn[nH]6)cc5n4C4CCC4)cc3)cc2)CC1 [Example 33] | 0.041
O=C(Nc1ccc(-c2cc3cc(F)c(-c4nnn[nH]4)cc3n2C2CCC2)cc1)C(=O)Nc1ccc(N2CCC3(CCOC3)C2)cc1 (stereo not drawn) [Example 61] | 0.041
CC1(O)CC2(CCN(c3ccc(NC(=O)C(=O)Nc4ccc(-c5cc6cc(F)c(-c7nnn[nH]7)cc6n5C5CCC5)cc4)cc3)CC2)C1 [Example 94] | 0.031
CC1(O)CCC2(CC1)CN(c1ccc(NC(=O)C(=O)Nc3ccc(-c4cc5cc(F)c(-c6nnn[nH]6)cc5n4C4CCC4)cc3)cc1)C2 [Example 83] | 0.058
CC(O)C1CCN(c2ccc(NC(=O)C(=O)Nc3ccc(-c4cc5cc(F)c(-c6nnn[nH]6)cc5n4C4CCC4)cc3)cc2)CC1 (stereo not drawn) [Example 29] | 0.048
CC1(n2c(-c3ccc(NC(=O)C(=O)Nc4ccc(N5CCC6(CCC(O)CC6)CC5)cc4)cc3)cc3cc(F)c(-c4nnn[nH]4)cc32)CCC1 [Example 109] | 0.061

Same assay, conditions: relative to 11a-1, IC50 = 0.108 µM

SMILES | SHP2 IC50 times lower than control compound 11a-1
O=C(Nc1ccc(-c2cc3cc(F)c(-c4nnn[nH]4)cc3n2C2CCC2)cc1)C(=O)Nc1ccc(N2CCC(C3COC3)CC2)cc1 [Example 20] | 3-4 times
O=C(Nc1ccc(-c2cc3cc(F)c(-c4nnn[nH]4)cc3n2C2CCC2)cc1)C(=O)Nc1ccc(N2CCC3(CCC(O)CC3)CC2)cc1 [Example 108] | 3-4 times
O=C(Nc1ccc(-c2cc3cc(F)c(-c4nnn[nH]4)cc3n2C2CCC2)cc1)C(=O)Nc1ccc(N2CCC3(CCOC3)CC2)cc1 [Example 67] | 3-4 times
CC1(O)CC2(CCN(c3ccc(NC(=O)C(=O)Nc4ccc(-c5cc6cc(F)c(-c7nnn[nH]7)cc6n5C5CCC5)cc4)cc3)CC2)C1 [Example 94] | 3-4 times
